# Experimental data taken from patent US20140128402A1, “PHARMACEUTICAL COMBINATION” (IPCA Laboratories Limited, priority 2011, published 2014).
# Tests used:
# Assay type in all cases: in vivo, Wistar rats
# [1] = tested on: STZ induced diabetic rats; test: Study No 2: blood glucose in STZ induced diabetic rats (HCQ with vildagliptin and saxagliptin); settings: for Plasma glucose concentration: oral
# Protocol: In this experiment 96 Wistar rats weighing 150-200 g of either sex were divided randomly into 16 groups consisting of 6 rats each. The study drugs were dissolved in water/suspended in vehicle [0.1% w/v suspension of Tween 80 and carboxymethylcellulose (CMC) in water] and administered orally for 28 days. Group 1 (normal vehicle control) consisted of normal rats that neither received Streptozotocin (STZ) nor any test drug; Group 2 served as Streptozotocin induced diabetic control [Diabetes was induced in rats by single administration of Streptozotocin (55 mg/kg/i.p.) dissolved in 0.1 M-citrate buffer, pH 4.5]. Forty-eight hours later, blood samples were collected and glucose levels were determined to confirm the development of diabetes. Only animals showing hyperglycaemia (blood glucose levels>250 mg/dl) were considered as diabetic and received vehicle orally; Group 3 was diabetic rats treated with hydroxychloroquine (HCQ) (22.5 mg/kg); Group 4 was diabetic rats treated with HCQ (45 mg/kg), Group 5 was diabetic rats treated with vildagliptin (VG) 6 mg/kg; Group 6 was diabetic rats treated with VG 12 mg/kg; Group 7 was diabetic rats treated with HCQ 22.5 mg/kg+VG 12 mg/kg and Group 8 was diabetic rats treated with combination of HCQ 45 mg/kg and VG 6 mg/kg; Group 9 was diabetic rats treated with saxagliptin (SG) 0.3 mg/kg; Group 10 was diabetic rats treated with Saxagliptin (SG) 0.6 mg/kg; Group 11 was diabetic rats treated with combination of HCQ 45 mg/kg+SG 0.3 mg/kg; Group 12 was diabetic rats treated with combination of HCQ 22.5 mg/kg+SG 0.6 mg/kg; Group 13 was diabetic rats treated with combination of HCQ 22.5 mg/kg and VG 6 mg/kg; Group 14 was diabetic rats treated with combination of HCQ 45 mg/kg and VG 12 mg/kg; Group 15 was diabetic rats treated with combination of HCQ 22.5 mg/kg+SG 0.3 mg/kg; Group 16 was diabetic rats treated with combination of HCQ 45 mg/kg+SG 0.6 mg/kg.
# Blood glucose level was measured in normal and experimental rats at 0, 7th, 14th, 21st and 28th day of administration.
# [2] = tested on: STZ-induced diabetic rats; test: Study No 1: blood glucose in STZ-induced diabetic rats (HCQ with sitagliptin)
# Protocol: In this experiment 48 Wistar rats weighing 130-150 g of either sex were divided randomly into 8 groups consisting of 6 rats each. The study drugs suspended in vehicle [0.1% w/v suspension of Tween 80 and carboxymethylcellulose (CMC) in water] were administered for orally for 21 days. Group 1 (normal vehicle control) consisted of normal rats that neither received streptozotocin nor any test drug; Group 2 served as streptozotocin induced diabetic control (Diabetes was induced in rats by single administration of streptozotocin (60 mg/kg/i.p) dissolved in 0.1 M-citrate buffer, pH 4.5). Forty-eight hours later, blood samples were collected and glucose levels were determined to confirm the development of diabetes.
# Blood glucose level was measured in normal and experimental rats at 1st, 7th, 14th and 21st day of administration. For other biochemical parameters i.e. Insulin, HbA1c, Triglycerides, Total Cholesterol, HDL, SGOT, SGPT, Total Protein, Albumin, Creatinine and Urea Blood samples were collected 1 h after the last dose administration from 18 h fasted rats through the retro-orbital plexus under chloroform anesthesia and analyzed using autoanalyzer (Microlab 2000). Other parameters like body weight, food intake and water intake were evaluated weekly till day 21st.
# [3] = tested on: STZ-induced diabetic rats; test: Study No 2: body weight, water intake and food intake in STZ-induced diabetic rats; settings: oral
# [4] = Day 0, HCQ 22.5, VG 6, SG 0.3 mg/kg alone, HCQ+VG 22.5+6, HCQ+SG 22.5+0.3 mg/kg/day
# [5] = Day 0, HCQ 45, VG 12, SG 0.6 mg/kg alone, HCQ+VG 45+12, HCQ+SG 45+0.6 mg/kg/day
# [6] = Day 7, HCQ 22.5, VG 6, SG 0.3 mg/kg alone, HCQ+VG 22.5+6, HCQ+SG 22.5+0.3 mg/kg/day
# [7] = Day 7, HCQ 45, VG 12, SG 0.6 mg/kg alone, HCQ+VG 45+12, HCQ+SG 45+0.6 mg/kg/day
# [8] = Day 14, HCQ 22.5, VG 6, SG 0.3 mg/kg alone, HCQ+VG 22.5+6, HCQ+SG 22.5+0.3 mg/kg/day
# [9] = Day 14, HCQ 45, VG 12, SG 0.6 mg/kg alone, HCQ+VG 45+12, HCQ+SG 45+0.6 mg/kg/day
# [10] = Day 21, HCQ 22.5, VG 6, SG 0.3 mg/kg alone, HCQ+VG 22.5+6, HCQ+SG 22.5+0.3 mg/kg/day
# [11] = Day 21, HCQ 45, VG 12, SG 0.6 mg/kg alone, HCQ+VG 45+12, HCQ+SG 45+0.6 mg/kg/day
# [12] = Day 28, HCQ 22.5, VG 6, SG 0.3 mg/kg alone, HCQ+VG 22.5+6, HCQ+SG 22.5+0.3 mg/kg/day
smiles,measurement,setting,value
"CCN(CCO)CCCC(C)Nc1ccnc2cc(Cl)ccc12 (centres unmarked) [HCQ, Hydroxychloroquine]",Plasma glucose concentration,"[1]; Day 0, HCQ 22.5, VG 6, SG 0.3 mg/kg alone, HCQ+VG 22.5+6, HCQ+SG 22.5+0.3 mg/kg",292.17 ± 26.12 mg/dL
same,Plasma glucose concentration,"[1]; Day 0, HCQ 45, VG 12, SG 0.6 mg/kg alone, HCQ+VG 45+12, HCQ+SG 45+0.6 mg/kg",305.67 ± 27.14 mg/dL
same,Plasma glucose concentration,"[1]; Day 7, HCQ 22.5, VG 6, SG 0.3 mg/kg alone, HCQ+VG 22.5+6, HCQ+SG 22.5+0.3 mg/kg",278 ± 22.59 mg/dL
same,Plasma glucose concentration,"[1]; Day 7, HCQ 45, VG 12, SG 0.6 mg/kg alone, HCQ+VG 45+12, HCQ+SG 45+0.6 mg/kg",265.5 ± 8.87 mg/dL
same,Plasma glucose concentration,"[1]; Day 14, HCQ 22.5, VG 6, SG 0.3 mg/kg alone, HCQ+VG 22.5+6, HCQ+SG 22.5+0.3 mg/kg",269.33 ± 11.45 mg/dL
same,Plasma glucose concentration,"[1]; Day 14, HCQ 45, VG 12, SG 0.6 mg/kg alone, HCQ+VG 45+12, HCQ+SG 45+0.6 mg/kg",266.5 ± 15.86 mg/dL
same,Plasma glucose concentration,"[1]; Day 21, HCQ 22.5, VG 6, SG 0.3 mg/kg alone, HCQ+VG 22.5+6, HCQ+SG 22.5+0.3 mg/kg",266.67 ± 24.68 mg/dL
same,Plasma glucose concentration,"[1]; Day 21, HCQ 45, VG 12, SG 0.6 mg/kg alone, HCQ+VG 45+12, HCQ+SG 45+0.6 mg/kg",265.83 ± 9.22 mg/dL
same,Plasma glucose concentration,"[1]; Day 28, HCQ 22.5, VG 6, SG 0.3 mg/kg alone, HCQ+VG 22.5+6, HCQ+SG 22.5+0.3 mg/kg",266.5 ± 11.33 mg/dL
same,Plasma glucose concentration,"[1]; Day 28, HCQ 45, VG 12, SG 0.6 mg/kg alone, HCQ+VG 45+12, HCQ+SG 45+0.6 mg/kg",244.5 ± 18.1 mg/dL
same,blood glucose levels as compared to diabetic control group,"[1]; alone at therapeutic equivalent doses, day 28",significant improvement
same,Plasma glucose concentration,"[2]; 1st day, subtherapeutic dose: STG 5.5, HCQ 23, STG+HCQ 5.5+23 mg/kg oral",253.33 ± 24.86 mg/dL
same,Plasma glucose concentration,"[2]; 1st day, therapeutic dose: STG 11, HCQ 46, STG+HCQ 11+46 mg/kg oral",267.83 ± 10.53 mg/dL
same,Plasma glucose concentration,"[2]; 7th day, subtherapeutic dose: STG 5.5, HCQ 23, STG+HCQ 5.5+23 mg/kg oral",248.67 ± 24.63 mg/dL
same,Plasma glucose concentration,"[2]; 7th day, therapeutic dose: STG 11, HCQ 46, STG+HCQ 11+46 mg/kg oral",243.83 ± 10.78 mg/dL
same,Plasma glucose concentration,"[2]; 14th day, subtherapeutic dose: STG 5.5, HCQ 23, STG+HCQ 5.5+23 mg/kg oral",241.33 ± 24.73 mg/dL
same,Plasma glucose concentration,"[2]; 14th day, therapeutic dose: STG 11, HCQ 46, STG+HCQ 11+46 mg/kg oral, 46 mg/kg",230.00 ± 12.96 mg/dL
same,Plasma glucose concentration,"[2]; 14th day, therapeutic dose: STG 11, HCQ 46, STG+HCQ 11+46 mg/kg oral, listed as hydroxychloroquine, 46 mg/kg",significant improvement
same,Plasma glucose concentration,"[2]; 21st day, subtherapeutic dose: STG 5.5, HCQ 23, STG+HCQ 5.5+23 mg/kg oral",232.00 ± 19.92 mg/dL
same,Plasma glucose concentration,"[2]; 21st day, therapeutic dose: STG 11, HCQ 46, STG+HCQ 11+46 mg/kg oral",207.67 ± 7.53 mg/dL
same,AVERAGE FOOD INTAKE,[3]; [4],11.45 g
same,AVERAGE WATER INTAKE,[3]; [4],25.05 mL
same,Body Weight,[3]; [4],199.83 ± 17.7 g
same,AVERAGE FOOD INTAKE,[3]; [5],11.67 g
same,AVERAGE WATER INTAKE,[3]; [5],23.88 mL
same,Body Weight,[3]; [5],198 ± 11.03 g
same,AVERAGE FOOD INTAKE,[3]; [6],13.35 g
same,AVERAGE WATER INTAKE,[3]; [6],24.11 mL
same,Body Weight,[3]; [6],190.67 ± 11.41 g
same,AVERAGE FOOD INTAKE,[3]; [7],13.39 g
same,AVERAGE WATER INTAKE,[3]; [7],22.41 mL
same,Body Weight,[3]; [7],184.17 ± 9.99 g
same,AVERAGE FOOD INTAKE,[3]; [8],11.95 g
same,AVERAGE WATER INTAKE,[3]; [8],23.29 mL
same,Body Weight,[3]; [8],196.17 ± 10.93 g
same,AVERAGE FOOD INTAKE,[3]; [9],12.05 g
same,AVERAGE WATER INTAKE,[3]; [9],21.55 mL
same,Body Weight,[3]; [9],190.67 ± 9.56 g
same,AVERAGE FOOD INTAKE,[3]; [10],13.00 g
same,AVERAGE WATER INTAKE,[3]; [10],26.34 mL
same,Body Weight,[3]; [10],199.67 ± 10.52 g
same,AVERAGE FOOD INTAKE,[3]; [11],12.75 g
same,AVERAGE WATER INTAKE,[3]; [11],26.22 mL
same,Body Weight,[3]; [11],194.67 ± 9.52 g
same,AVERAGE FOOD INTAKE,[3]; [12],14.11 g
same,AVERAGE WATER INTAKE,[3]; [12],25.44 mL
same,Body Weight,[3]; [12],201.17 ± 8.7 g
